The subject of one experiment is p-Erk (A375). The experiment can be described thus: Cell-based phosphorylation assay with electroblotting readout. Details: species or system human. To be noted: A375 cells; for EC50: Homo sapiens, A-375, 1 hr. The text has this: Compounds of the present invention have been screened for their ability to inhibit all isoforms, both wild-type and mutant of RAF kinases (A-RAF, B-RAF and C-RAF) in general, and the mutant B-RAF (V600E) in particular in human cancer cells. A375 is a human melanoma cell line that harbors the most common B-RAF mutation-V600E found in human cancers. The ability of compounds to inhibit RAF kinases in this assay is correlated with the reduction of MEK and ERK phosphorylation, and is therefore a direct indicator of potential in vivo therapeutic activity.
Materials: A375 cells from ATCC were maintained at 37° C., 5% CO2 in DMEM media supplemented with 10% fetal bovine serum, penicillin/streptomycin and fungizone. (Invitrogen)
Methods: Test compounds were dissolved and diluted 1:1000 in DMSO. A375 cells were seeded in six-well tissue culture plates at 5-8×10^5 per well and cultured at 37° C. for 24 h. Cells were incubated with compounds for one hour before being lysed in EPage™ loading buffer (Invitrogen). Lysates were electrophoresed on 8% EPage™ gels and transferred to polyvinylidene difluoride membranes. After incubations with primary and secondary antibodies, the immunostained proteins were detected and quantitated by an Odyssey infrared imager (LI-COR). Analysis was performed by non-linear regression to generate a dose response curve. The calculated IC50 value was the concentration of the test compound that causes a 50% decrease in phospho-MEK and phospho-ERK levels. The primary antibodies used were anti-MEK (Stressgen), anti-ERK (BD Biosciences), anti-phospho-ERK and anti-phospho-MEK (Cell Signaling). The secondary antibodies used were IRDYE800 anti-rabbit, IRDYE 800 anti-mouse (Rockland), AlexaFluor680 anti-mouse and AlexaFluoro680 anti-rabbit (Invitrogen).
A375 cells were treated with 0, 12, 37, 111, 333 and 1000 nM of indicated compounds for 1 hr. The levels of Phospho-ERK and total-ERK were accessed by immunoblotting.

Another experiment has as its target T1, mutant B-RAF (Homo sapiens, UniProt P15056, V600E).
T1 construct: purchased Upstate (Charlottesville, Va.)
As to the kind of experiment: Measurement of RAF activity (MEK-1 phosphorylation). The experiment is classed as biochemical. The conditions noted are these: for increase in IC50 relative to compound 14: mutant B-RAF. How it is done:
Materials: The RAF kinases and the anti-phospho MEK1/2 antibody were from Upstate (Charlottesville, Va.). The RAF substrate used was full length N-terminal GST-MEK-1, which was expressed in E. coli and purified in-house by HPLC. All proteins were aliquoted and stored at −80° C. Superblock™ in phosphate buffered saline (PBS) blocking reagent was form Pierce (cat. #37515). ATP was from Roche (cat. # 19035722). Alkaline Phosphatase-tagged goat anti-rabbit antibody was from Pierce (cat. # 31340).
Methods: All RAF biochemical assays were performed using an assay buffer containing 20 mM MOPS, 5 mM EGTA, 37.5 mM MgCl2, 1 mM DTT and 50 μM ATP. There was 6.25 ng/well mutant B-RAF and 7.5 ng/well MEK-1 in the final assay conditions. Compounds were serially diluted in assay buffer containing 1% DMSO and 20 μl of test compound at a concentration 3-fold more than the final concentration, and were added to a polypropylene V-well reaction plate. Vehicle control wells received buffer only with DMSO at equivalent concentrations to the test wells. […] These reaction plates were incubated at room temperature for 30 minutes. Capture of MEK-1 was initiated by transferring 50 μl of the reaction mixture to a Nunc Maxisorp™ microplate that is designed for non-specific protein capture. After 30 minute capture of MEK-1 at room temperature, this plate was washed with TBST (6×200 μL/well) to fully terminate the reaction. The plate was then blocked for 1 hour by the addition of 100 μl/well of Superblock™ in phosphate buffered saline (PBS) blocking reagent. Plate was again washed with TBST (6 times with 200 μl/well), followed by the addition of 70 μl/well of Upstate anti-phospho MEK ½ diluted 1:1000 in Pierce Superblock (PBS). After a 60 minute incubation, this plate was washed with TBST (6 times with 200 μl/well), and 70 μl of the secondary antibody (Pierce Alkaline Phosphatase tagged goat anti-rabbit) prepared at 1:4000 in Superblock, were added. After a 45 minute incubation at room temperature, the wells of the microplate were washed with TBST (6 times with 200 μl/well), and thereafter 100 μl/well of Attophos™ fluorescent alkaline phosphatase substrate was added according to the manufacturer's instructions (JBL Scientific). Fluorescence was read on a Perkin Elmer Envision multilabel reader, using the following filters: Excitation Filter: CFP430 nM, Emission Filter: Emission Filter 579 nM.

The mark [1] stands for this setting: 50 μM ATP, MEK-1 substrate, read-out: Mut-B-Raf IC50.

Each structure is given as a SMILES string. Like-named read-outs stand apart in the source and are kept apart here.

T1 sequence (P15056 whole entry V600E): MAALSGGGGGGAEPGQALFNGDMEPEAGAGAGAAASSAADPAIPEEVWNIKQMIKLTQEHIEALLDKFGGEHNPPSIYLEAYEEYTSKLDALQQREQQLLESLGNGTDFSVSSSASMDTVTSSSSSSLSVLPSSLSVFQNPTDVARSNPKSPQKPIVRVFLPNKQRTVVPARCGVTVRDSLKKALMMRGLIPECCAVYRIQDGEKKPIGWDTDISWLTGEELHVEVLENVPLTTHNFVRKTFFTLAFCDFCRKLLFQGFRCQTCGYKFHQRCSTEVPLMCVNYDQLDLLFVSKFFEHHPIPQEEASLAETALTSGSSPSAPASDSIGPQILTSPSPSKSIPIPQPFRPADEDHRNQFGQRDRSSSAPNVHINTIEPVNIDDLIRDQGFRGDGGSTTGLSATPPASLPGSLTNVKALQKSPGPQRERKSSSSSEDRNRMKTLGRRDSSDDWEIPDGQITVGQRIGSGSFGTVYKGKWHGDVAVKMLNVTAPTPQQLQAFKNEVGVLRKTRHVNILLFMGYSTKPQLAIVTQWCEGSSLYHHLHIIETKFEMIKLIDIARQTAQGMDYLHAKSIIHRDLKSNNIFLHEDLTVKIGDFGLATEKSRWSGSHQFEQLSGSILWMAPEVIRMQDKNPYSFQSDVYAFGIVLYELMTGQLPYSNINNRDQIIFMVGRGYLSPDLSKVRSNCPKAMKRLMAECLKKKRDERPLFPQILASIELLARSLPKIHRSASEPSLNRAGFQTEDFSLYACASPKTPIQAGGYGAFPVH

Regarding `O=P(O)(O)Oc1cccc(-c2nc3occn3c2-c2ccnc(NC3CCN(S(=O)(=O)C4CC4)CC3)n2)c1` [Compound 12, 3-(5-(2-(1-(cyclopropylsulfonyl)piperidin-4-ylamino)pyrimidin-4-yl)imidazo[2,1-b]oxazol-6-yl)phenyl dihydrogen phosphate], the EC50 (as a rule, the concentration at which the effect is half-maximal) with p-Erk (A375) is 177 nM. Also, the half-inhibitory concentration (IC50) (usually the point on the concentration scale where inhibition reaches its midpoint) at mutant B-RAF was above 3300 nM.
Take `O=P(O)(O)OCOc1cccc(-c2nc3occn3c2-c2ccnc(NC3CCN(S(=O)(=O)C4CC4)CC3)n2)c1` [Compound 13, (3-(5-(2-(1-(cyclopropylsulfonyl)piperidin-4-ylamino)pyrimidin-4-yl)imidazo[2,1-b]oxazol-6-yl)phenoxy)methyl dihydrogen phosphate]: the 50% effective concentration (EC50) in the experiment with p-Erk (A375) was 161 nM. For the same compound, the 50% inhibitory concentration (IC50) at mutant B-RAF (setting [1]) was above 3300 nM.
For `O=S(=O)(c1ccc(Cl)cc1)N1CCC[C@@H](Nc2nccc(-c3c(-c4cccc(O)c4)nc4sccn34)n2)C1` [Compound 1, (R)-3-(5-(2-(1-(4-chlorophenylsulfonyl)piperidin-3-ylamino)pyrimidin-4-yl)imidazo[2,1-b]thiazol-6-yl)phenol], in that order: 11 nM and 6 nM.
Consider `Cn1ccc(S(=O)(=O)N2CCC[C@@H](Nc3nccc(-c4c(-c5cccc(OCOP(=O)(O)O)c5)nc5sccn45)n3)C2)n1` [Compound 16, (R)-(3-(5-(2-(1-(1-methyl-1H-pyrazol-3-ylsulfonyl)piperidin-3-ylmino)pyrimidin-4-yl)imidazo[2,1-b]thiazol-6-yl)phenoxy)methyl dihydrogen phosphate], for which, in the experiment with p-Erk (A375), the “deviation in EC50 (cell-based ERK inhibition) relative to compound 14” value is recorded as around 4 fold and the EC50 came out at 4 nM. The IC50 on mutant B-RAF (setting [1]) was 1160 nM. In addition, on mutant B-RAF, the “increase in IC50 relative to compound 14” value is around 193 fold.
Regarding `O=P(O)(O)OCOc1cccc(-c2nc3occn3c2-c2ccnc(N[C@@H]3CCCN(S(=O)(=O)c4ccc(Cl)cc4)C3)n2)c1` [Compound 6, (R)-(3-(5-(2-(1-(4-chlorophenylsulfonyl)piperidin-3-ylamino)pyrimidin-4-yl)imidazo[2,1-b]oxazol-6-yl)phenoxy)methyl dihydrogen phosphate], the concentration for a half-maximal effect (EC50) in the experiment with p-Erk (A375) was 12 nM. For the same compound, the IC50 on mutant B-RAF (setting [1]) stood at 1410 nM.
Turning to `Cn1ccc(S(=O)(=O)N2CCC[C@@H](Nc3nccc(-c4c(-c5cccc(OP(=O)(O)O)c5)nc5occn45)n3)C2)n1` [Compound 18, (R)-3-(5-(2-(1-(1-methyl-1H-pyrazol-3-ylsulfonyl)piperidin-3-ylamino)pyrimidin-4-yl)imidazo[2,1-b]oxazol-6-yl)phenyl dihydrogen phosphate], a half-maximal effect with p-Erk (A375) (EC50) was put at 87 nM. At mutant B-RAF, this compound had an IC50 above 3300 nM.
In the experiment with p-Erk (A375), `O=P(O)(O)OCOc1cccc(-c2nc3sccn3c2-c2ccnc(N[C@@H]3CCCN(S(=O)(=O)c4ccc(Cl)cc4)C3)n2)c1` [Compound 3, (R)-(3-(5-(2-(1-(4-chlorophenylsulfonyl)piperidin-3-ylamino)pyrimidin-4-yl)imidazo[2,1-b]thiazol-6-yl)phenoxy)methyl dihydrogen phosphate] had an EC50 of 71 nM. Besides, the IC50 at mutant B-RAF (setting [1]) came out at 375 nM.
Take `Cn1ccc(S(=O)(=O)N2CCC[C@@H](Nc3nccc(-c4c(-c5ccc(F)c(OP(=O)(O)O)c5)nc5occn45)n3)C2)n1` [Compound 23, (R)-2-fluoro-5-(5-(2-(1-(1-methyl-1H-pyrazol-3-ylsulfonyl)piperidin-3-ylamino)pyrimidin-4-yl)imidazo[2,1-b]oxazol-6-yl)phenyl dihydrogen phosphate]: the response in the experiment on p-Erk (A375) was half-maximal at 9 nM (EC50). On mutant B-RAF, this compound registered a concentration for half-maximal inhibition (IC50) of 1050 nM.
For `O=P(O)(O)Oc1cccc(-c2nc3sccn3c2-c2ccnc(N[C@@H]3CCCN(S(=O)(=O)c4ccc(Cl)cc4)C3)n2)c1` [Compound 2, (R)-3-(5-(2-(1-(4-chlorophenylsulfonyl)piperidin-3-ylamino)pyrimidin-4-yl)imidazo[2,1-b]thiazol-6-yl)phenyl dihydrogen phosphate], in that order: 260 nM and 1900 nM.
`Cn1ccc(S(=O)(=O)N2CCC[C@@H](Nc3nccc(-c4c(-c5cccc(OP(=O)(O)O)c5)nc5sccn45)n3)C2)n1` [Compound 15, (R)-3-(5-(2-(1-(1-methyl-1H-pyrazol-3-ylsulfonyl)piperidin-3-ylamino)pyrimidin-4-yl)imidazo[2,1-b]thiazol-6-yl)phenyl dihydrogen phosphate]: in the experiment on p-Erk (A375), the “deviation in EC50 (cell-based ERK inhibition) relative to compound 14” value was “about 2 fold” and the midpoint of the response, the EC50, lay at 8 nM. Moreover, at mutant B-RAF, the concentration for half-maximal inhibition (IC50) was 2410 nM and the “increase in IC50 relative to compound 14” value was around 400 fold.
With `O=P(O)(O)OCOc1cccc(-c2nc3sccn3c2-c2ccnc(NC3CCN(S(=O)(=O)c4ccc(Cl)cc4)CC3)n2)c1` [Compound 8, (3-(5-(2-(1-(4-chlorophenylsulfonyl)piperidin-4-ylamino)pyrimidin-4-yl)imidazo[2,1-b]thiazol-6-yl)phenoxy)methyl dihydrogen phosphate], the response in the experiment on p-Erk (A375) was half-maximal at 938 nM (EC50). The IC50 at mutant B-RAF (setting [1]) amounted to 405 nM.
For the compound `O=P(O)(O)Oc1cccc(-c2nc3occn3c2-c2ccnc(N[C@@H]3CCCN(S(=O)(=O)c4ccc(Cl)cc4)C3)n2)c1` [Compound 5, (R)-3-(5-(2-(1-(4-chlorophenylsulfonyl)piperidin-3-ylamino)pyrimidin-4-yl)imidazo[2,1-b]oxazol-6-yl)phenyl dihydrogen phosphate], the midpoint of the response with p-Erk (A375), the EC50, lay at 127 nM. Half-maximal inhibition at mutant B-RAF (IC50) required 1900 nM.
In the experiment on p-Erk (A375), `Cn1ccc(S(=O)(=O)N2CCC[C@@H](Nc3nccc(-c4c(-c5ccc(F)c(OCOP(=O)(O)O)c5)nc5occn45)n3)C2)n1` [Compound 24, (R)-(2-fluoro-5-(5-(2-(1-(1-methyl-1H-pyrazol-3-ylsulfonyl)piperidin-3-ylamino)pyrimidin-4-yl)imidazo[2,1-b]oxazol-6-yl)phenoxy)methyl dihydrogen phosphate] returned an EC50 of 52 nM. Moreover, the IC50 on mutant B-RAF (setting [1]) is 28 nM.
`O=P(O)(O)Oc1cccc(-c2nc3occn3c2-c2ccnc(NC3CCN(S(=O)(=O)c4ccc(F)cc4)CC3)n2)c1` [Compound 10, 3-(5-(2-(1-(4-fluorophenylsulfonyl)piperidin-4-ylamino)pyrimidin-4-yl)imidazo[2,1-b]oxazol-6-yl)phenyl dihydrogen phosphate]: it took 88 nM to reach a half-maximal effect with p-Erk (A375) (EC50). The half-inhibitory concentration (IC50) against mutant B-RAF is 1170 nM.
In the experiment with p-Erk (A375), `Cn1ccc(S(=O)(=O)N2CCC(Nc3nccc(-c4c(-c5cccc(OCOP(=O)(O)O)c5)nc5occn45)n3)CC2)n1` [Compound 21, (3-(5-(2-(1-(1-methyl-1H-pyrazol-3-ylsulfonyl)piperidin-4-ylamino)pyrimidin-4-yl)imidazo[2,1-b]oxazol-6-yl)phenoxy)methyl dihydrogen phosphate] yielded an EC50 of 141 nM. Further, on mutant B-RAF (setting [1]), the IC50 came out at 1160 nM.

The values above are taken from patent US20100183600A1, “RAF Inhibitors and Their Uses” (ARQULE, INC., priority 2008, published 2010).
